Values joined by “and” are separate entries in the source; they are usually repeats but may differ in a detail not shown here. Equal entries are not always repeated. Toxic doses and inconclusive results are not listed. Rule for the calls: active = survival T/C of 150% or more; inactive = T/C below 125% in these data. Peptide text beside a SMILES is read from it.
Tested on: P388 leukemia ip, CD2F1 mice, survival T/C
Assay: NCI In Vivo Anticancer Drug Screen. Data for tumor model P388 Leukemia (intraperitoneal) in CD2F1 (CDF1) mice
Conditions: endpoint: median survival time, higher = longer survival
Procedure, shortened: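 Mice carrying the transplanted tumor received test compound or vehicle. Survival was recorded in each group, and the value is the treated-group measurement divided by that of the vehicle-treated control group.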

[1] = dose: 50.0 mg/kg/injection, schedule: Q01DX009 (ip), vehicle: Klucel (hydroxypropylcellulose) (HPC)
[2] = dose: 100.0 mg/kg/injection, schedule: Q01DX009 (ip), vehicle: Klucel (hydroxypropylcellulose) (HPC)
[3] = dose: 200.0 mg/kg/injection, schedule: Q01DX009 (ip), vehicle: Klucel (hydroxypropylcellulose) (HPC)
[4] = dose: 50.0 mg/kg/injection, schedule: Q01DX005 (ip), vehicle: saline with Tween-80
[5] = dose: 100.0 mg/kg/injection, schedule: Q01DX005 (ip), vehicle: saline with Tween-80
[6] = dose: 200.0 mg/kg/injection, schedule: Q01DX005 (ip), vehicle: saline with Tween-80
[7] = dose: 100.0 mg/kg/injection, schedule: Q04DX003 (ip), vehicle: saline with Tween-80
[8] = dose: 200.0 mg/kg/injection, schedule: Q04DX003 (ip), vehicle: saline with Tween-80
[9] = dose: 400.0 mg/kg/injection, schedule: Q04DX003 (ip), vehicle: saline with Tween-80
[10] = dose: 100.0 mg/kg/injection, schedule: Q01DX009 (ip), vehicle: saline
[11] = dose: 200.0 mg/kg/injection, schedule: Q01DX009 (ip), vehicle: saline sonified
[12] = dose: 60.0 mg/kg/injection, schedule: Q01DX005 (ip), vehicle: saline with Tween-80
[13] = dose: 100.0 mg/kg/injection, schedule: Q04DX002 (ip), vehicle: saline with Tween-80
[14] = dose: 200.0 mg/kg/injection, schedule: Q04DX002 (ip), vehicle: saline with Tween-80
[15] = dose: 400.0 mg/kg/injection, schedule: Q04DX002 (ip), vehicle: saline with Tween-80
[16] = dose: 50.0 mg/kg/injection, schedule: Q01DX005 (ip), vehicle: Klucel (hydroxypropylcellulose) (HPC)
[17] = dose: 200.0 mg/kg/injection, schedule: Q01DX005 (ip), vehicle: Klucel (hydroxypropylcellulose) (HPC)
[18] = dose: 100.0 mg/kg/injection, schedule: Q01DX005 (ip), vehicle: Klucel (hydroxypropylcellulose) (HPC)

Measured: T/C

CCN(CC)Cc1cc(N=Nc2ccc(-c3ccc(N)c(OC)c3)cc2OC)c2ccccc2c1O
inactive: [1] 92 % of control | [2] 99 % of control | [3] 93 % of control

O=C(O)C(Cc1ccc(O)cc1)c1ccc(C(Cc2ccc(O)cc2)C(=O)O)cc1 (centres undefined)
inactive: [4] 105 % of control | [5] 102 % of control | [6] 100 % of control

CC(C)C(NC(=O)C(N)CCCCN)C(=O)O (stereo not drawn) (H-Lys-Val-OH; configuration not given here)
inactive: dose: 100.0 mg/kg/injection, schedule: Q04DX003 (ip), vehicle: saline 96 % of control | dose: 200.0 mg/kg/injection, schedule: Q04DX003 (ip), vehicle: saline 97 % of control | dose: 400.0 mg/kg/injection, schedule: Q04DX003 (ip), vehicle: saline 97 % of control

COC(=O)C1c2c(C)cc3n2C(C(C)=CC3)C1C(=O)OC (centres undefined)
inactive: dose: 100.0 mg/kg/injection, schedule: Q04DX003 (ip), vehicle: Klucel (hydroxypropylcellulose) (HPC) 99 % of control | dose: 200.0 mg/kg/injection, schedule: Q04DX003 (ip), vehicle: Klucel (hydroxypropylcellulose) (HPC) 96 % of control | dose: 400.0 mg/kg/injection, schedule: Q04DX003 (ip), vehicle: Klucel (hydroxypropylcellulose) (HPC) 99 % of control

Cc1c2cnccc2c(C)c2c1c1ccccc1n2CCOC(=O)c1ccccc1
inactive: [7] 95 % of control | [8] 86 % of control | [9] 86 % of control

Cc1cc(N)c(C)c2ccncc12
inactive: dose: 0.63 mg/kg/injection, schedule: Q01DX009 (ip), vehicle: saline with Tween-80 100 % of control | dose: 1.25 mg/kg/injection, schedule: Q01DX009 (ip), vehicle: saline with Tween-80 90 % of control | dose: 2.5 mg/kg/injection, schedule: Q04DX003 (ip), vehicle: saline with Tween-80 104 % of control

CC(C)(C)CC(C)(C)c1ccc(O)cc1
inactive: dose: 66.0 mg/kg/injection, schedule: Q01DX009 (ip), vehicle: saline 100 % of control | [10] 100 % of control | dose: 150.0 mg/kg/injection, schedule: Q01DX009 (ip), vehicle: saline 122 % of control | [11] 118 % of control

O=C(Nc1ccccc1-c1ccccc1)c1cccc2ccccc12
inactive: [4] 106 % of control | [5] 94 % of control | [6] 90 % of control

CNCCC(Oc1ccccc1OC)c1ccccc1 (centres undefined)
inactive: dose: 12.5 mg/kg/injection, schedule: Q04DX002 (ip), vehicle: saline with Tween-80 106 % of control | dose: 25.0 mg/kg/injection, schedule: Q04DX002 (ip), vehicle: saline with Tween-80 100 % of control | dose: 25.0 mg/kg/injection, schedule: Q04DX002 (ip), vehicle: saline 113 % of control | dose: 50.0 mg/kg/injection, schedule: Q04DX002 (ip), vehicle: saline with Tween-80 99 % of control and 98 % of control | dose: 50.0 mg/kg/injection, schedule: Q04DX002 (ip), vehicle: saline 103 % of control

Cc1cc2nc(CC(=O)c3ccc4ccccc4c3)c(=O)[nH]c2cc1C
inactive: dose: 15.0 mg/kg/injection, schedule: Q01DX005 (ip), vehicle: saline with Tween-80 91 % of control | dose: 30.0 mg/kg/injection, schedule: Q01DX005 (ip), vehicle: saline with Tween-80 91 % of control | [12] 90 % of control

O/N=C(\CC(O)(C(F)(F)F)C(F)(F)F)c1cccs1
inactive: [7] 100 % of control | [8] 95 % of control | [9] 108 % of control

CCCCN(CCCC)c1cc(C(=O)CCCCCN)c2ccccc2n1
inactive: dose: 6.25 mg/kg/injection, schedule: Q01DX005 (ip), vehicle: saline 97 % of control | dose: 12.5 mg/kg/injection, schedule: Q01DX005 (ip), vehicle: saline 90 % of control | dose: 25.0 mg/kg/injection, schedule: Q01DX005 (ip), vehicle: saline 90 % of control and 94 % of control

CS/C(=C\C=Nc1ccccc1)c1ccccc1
inactive: [13] 103 % of control | [14] 100 % of control | [15] 109 % of control

C=CCn1ccn(C)c1=S
inactive: [7] 101 % of control | [8] 98 % of control | [9] 102 % of control

COC(=O)C1=COC(C)C2CN3CCc4c([nH]c5cc(OC)c(OC)cc45)C3CC12 (centres undefined)
inactive: [4] 101 % of control | [5] 102 % of control | [6] 115 % of control

O=[N+]([O-])c1cccnc1-n1nnc2c([N+](=O)[O-])cccc21
inactive: [12] 99 % of control | dose: 120.0 mg/kg/injection, schedule: Q01DX005 (ip), vehicle: saline with Tween-80 100 % of control | dose: 240.0 mg/kg/injection, schedule: Q01DX005 (ip), vehicle: saline with Tween-80 102 % of control

CN(C)N=Nc1ccc(C(=O)NC(Cc2ccccc2)C(=O)O)cc1 (centres undefined)
inactive: dose: 12.5 mg/kg/injection, schedule: Q01DX005 (ip), vehicle: Klucel (hydroxypropylcellulose) (HPC) 100 % of control | dose: 25.0 mg/kg/injection, schedule: Q01DX005 (ip), vehicle: Klucel (hydroxypropylcellulose) (HPC) 101 % of control | [16] 98 % of control and 102 % of control | [17] 107 % of control

COc1cc2c(cc1OC)C(CCN1C(=O)CCC1=O)=NCC2
inactive: dose: 50.0 mg/kg/injection, schedule: Q01DX009 (ip), vehicle: saline sonified 100 % of control | dose: 100.0 mg/kg/injection, schedule: Q01DX009 (ip), vehicle: saline sonified 100 % of control | [11] 95 % of control

O=C1NC(O)c2cc(Br)ccc2O1 (centres undefined)
inactive: [16] 100 % of control | [18] 104 % of control | [17] 106 % of control

COC(=O)c1c(-c2ccc3c(c2)OCO3)c(C=O)n(C)c1C
inactive: [13] 90 % of control | [14] 87 % of control | [15] 89 % of control

Clc1ccc(N=Cc2cccs2)c(Cl)c1
inactive: [1] 118 % of control | [2] 107 % of control | [3] 110 % of control

Cc1ccc2nc(-c3ccc4nc(-c5ccc(N=Nc6ccc(-c7nc8ccc(-c9nc%10ccc(C)c(S(=O)(=O)O)c%10s9)cc8s7)cc6)cc5)sc4c3)sc2c1S(=O)(=O)O
inactive: dose: 50.0 mg/kg/injection, schedule: Q01DX009 (ip), vehicle: saline 113 % of control and 116 % of control | [10] 116 % of control and 121 % of control | dose: 200.0 mg/kg/injection, schedule: Q01DX009 (ip), vehicle: saline 112 % of control and 123 % of control

c1ccc(N2C3Sc4ncccc4C2Sc2ncccc23)cc1
inactive: [1] 104 % of control | [2] 94 % of control | [3] 96 % of control

Cc1cc2c(cc1C)NC1=C(N2)OC(c2ccc(C3OC4=C(Nc5cc(C)c(C)cc5N4)C3=O)cc2)C1=O (centres undefined)
inactive: dose: 60.0 mg/kg/injection, schedule: Q01DX005 (ip), vehicle: Klucel (hydroxypropylcellulose) (HPC) 92 % of control | dose: 120.0 mg/kg/injection, schedule: Q01DX005 (ip), vehicle: Klucel (hydroxypropylcellulose) (HPC) 92 % of control | dose: 240.0 mg/kg/injection, schedule: Q01DX005 (ip), vehicle: Klucel (hydroxypropylcellulose) (HPC) 93 % of control

C/C(=N\N=c1\sc2ccccc2n1CC(=O)O)c1ccc(C)cc1
inactive: dose: 100.0 mg/kg/injection, schedule: Q01DX001 (ip), vehicle: saline with Tween-80 102 % of control | dose: 200.0 mg/kg/injection, schedule: Q01DX001 (ip), vehicle: saline with Tween-80 106 % of control | dose: 400.0 mg/kg/injection, schedule: Q01DX001 (ip), vehicle: saline with Tween-80 101 % of control

Cc1c2ccn(CCCCCCCCn3ccc4c(C)c5nc6ccccc6c5c(C)c4c3)cc2c(C)c2c1nc1ccccc12
inactive: dose: 3.13 mg/kg/injection, schedule: Q04DX003 (ip), vehicle: distilled water + Tween-80 118 % of control and 121 % of control | dose: 25.0 mg/kg/injection, schedule: Q04DX003 (ip), vehicle: distilled water + Tween-80 123 % of control

C[CH2][Ge]([CH2]C)[CH2]C(=O)OC.C[CH2][Ge]([CH2]C)[CH2]C(=O)OC
inactive: [16] 100 % of control | [18] 100 % of control | [17] 101 % of control
